In general, IC50 refers to the midpoint of a concentration-inhibition curve.

In the test the target is EGFR (human) (UniProt P00533).
EGFR (human), sequence (P00533 whole entry, looked up): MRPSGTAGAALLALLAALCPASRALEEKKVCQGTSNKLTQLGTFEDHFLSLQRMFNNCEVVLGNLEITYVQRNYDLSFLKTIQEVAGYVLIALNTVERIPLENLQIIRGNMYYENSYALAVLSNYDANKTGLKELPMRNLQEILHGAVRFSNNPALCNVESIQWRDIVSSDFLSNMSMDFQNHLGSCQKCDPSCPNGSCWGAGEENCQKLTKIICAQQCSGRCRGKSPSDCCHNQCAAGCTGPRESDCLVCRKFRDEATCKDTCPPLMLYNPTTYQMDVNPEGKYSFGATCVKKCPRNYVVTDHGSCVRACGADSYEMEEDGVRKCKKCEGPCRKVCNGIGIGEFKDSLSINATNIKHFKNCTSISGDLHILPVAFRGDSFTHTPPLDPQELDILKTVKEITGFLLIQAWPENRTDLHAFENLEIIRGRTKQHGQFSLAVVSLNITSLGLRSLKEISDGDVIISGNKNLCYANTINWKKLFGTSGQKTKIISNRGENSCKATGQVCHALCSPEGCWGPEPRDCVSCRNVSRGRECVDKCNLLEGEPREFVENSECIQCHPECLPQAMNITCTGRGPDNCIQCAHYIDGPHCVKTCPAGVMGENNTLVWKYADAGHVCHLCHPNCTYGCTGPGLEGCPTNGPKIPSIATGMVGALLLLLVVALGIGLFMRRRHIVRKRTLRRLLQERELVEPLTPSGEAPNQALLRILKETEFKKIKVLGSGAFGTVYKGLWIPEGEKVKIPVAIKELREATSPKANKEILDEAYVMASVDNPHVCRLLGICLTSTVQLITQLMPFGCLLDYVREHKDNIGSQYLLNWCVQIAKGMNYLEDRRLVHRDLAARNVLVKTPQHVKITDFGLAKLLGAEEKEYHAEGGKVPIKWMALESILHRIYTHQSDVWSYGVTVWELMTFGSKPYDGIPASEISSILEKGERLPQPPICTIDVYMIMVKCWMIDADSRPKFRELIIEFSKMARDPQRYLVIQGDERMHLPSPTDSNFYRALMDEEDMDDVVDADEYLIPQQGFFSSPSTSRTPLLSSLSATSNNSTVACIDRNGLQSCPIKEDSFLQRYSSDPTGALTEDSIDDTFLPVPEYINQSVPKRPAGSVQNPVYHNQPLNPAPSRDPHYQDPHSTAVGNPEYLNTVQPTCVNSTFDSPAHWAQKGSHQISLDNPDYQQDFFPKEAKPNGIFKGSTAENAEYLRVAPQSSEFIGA
In the case of `CC(C)c1cnc(NC(=O)c2ccc(-c3nn([C@@H]4CCN(C(=O)/C=C/CN(C)C5CC5)C4)c4ncnc(N)c34)cc2)s1`, the IC50 lay in the range of 100 to 1000 nM. The figure for `CN(C/C=C/C(=O)N1CC[C@@H](n2nc(-c3ccc(C(=O)Nc4cc(C(F)(F)F)ccn4)cc3)c3c(N)ncnc32)C1)C1CC1` is 100 to 1000 nM; for `CN(C)C/C=C/C(=O)N1CC[C@@H](n2nc(-c3ccc(C(=O)Nc4cc(C(F)(F)F)ccn4)cc3)c3c(N)ncnc32)C1` it is 100 to 1000 nM. For `CN(C/C=C/C(=O)N1CC[C@@H](n2nc(-c3ccc(C(=O)Nc4ncco4)cc3)c3c(N)ncnc32)C1)C1CC1`, the IC50 was more than 10 nM. Consider `CN(C/C=C/C(=O)N1CC[C@@H](n2nc(-c3ccc(C(=O)Nc4nccs4)cc3)c3c(N)ncnc32)C1)C1CC1`, for which the IC50 was less than 1 nM. Regarding `CN(C)C/C=C/C(=O)N1CC[C@@H](n2nc(-c3ccc(C(=O)Nc4ccccn4)cc3)c3c(N)ncnc32)C1`, the concentration for half-maximal inhibition (IC50) is 100 to 1000 nM. `CC#CC(=O)N[C@H]1CC[C@H](n2nc(-c3ccc(C(=O)Nc4cc(C(F)(F)F)ccn4)cc3)c3c(N)ncnc32)CC1` displayed an IC50 of 100 to 1000 nM. As for `Cc1ccnc(NC(=O)c2ccc(-c3nn([C@H]4CC[C@H](NC(=O)/C=C/CN(C)C5CC5)CC4)c4ncnc(N)c34)cc2)c1`, the figure is 100 to 1000 nM; as for `CNC/C=C/C(=O)N1CC[C@@H](n2nc(-c3ccc(C(=O)Nc4cc(C(F)(F)F)ccn4)cc3)c3c(N)ncnc32)C1`, 1 to 100 nM; as for `CC(C)c1ccnc(NC(=O)c2ccc(-c3nn([C@@H]4CCN(C(=O)/C=C/CN(C)C)C4)c4ncnc(N)c34)cc2)c1`, 100 to 1000 nM. As for `CCCc1ccnc(NC(=O)c2ccc(-c3nn([C@@H]4CCN(C(=O)/C=C/CN(C)C5CC5)C4)c4ncnc(N)c34)cc2)c1`, the figure is 100 to 1000 nM. As for `Nc1ncnc2c1c(-c1ccc(C(=O)Nc3cc(C(F)(F)F)ccn3)cc1)nn2[C@@H]1CCN(C(=O)/C=C/CNC2CC2)C1`, the figure is 1 to 100 nM. `CNC/C=C/C(=O)N1CC[C@@H](n2nc(-c3ccc(C(=O)Nc4cc(C)ccn4)cc3)c3c(N)ncnc32)C1`: the IC50 was 100 to 1000 nM. Regarding `CN(C/C=C/C(=O)N1CC[C@@H](n2nc(-c3ccc(C(=O)Nc4ccccn4)cc3)c3c(N)ncnc32)C1)C1CC1`, the IC50 lay in the range of 100 to 1000 nM.

As to `CN(C)C/C=C/C(=O)N1CC[C@@H](n2nc(-c3ccc(C(=O)Nc4cc(C#N)ccn4)cc3)c3c(N)ncnc32)C1`, the IC50 was in the range of 100 to 1000 nM. Take `CCc1cnc(NC(=O)c2ccc(-c3nn([C@@H]4CCN(C(=O)/C=C/CN(C)C5CC5)C4)c4ncnc(N)c34)cc2)s1`: the IC50 lay within 100 to 1000 nM.

In turn, `Cc1ccnc(NC(=O)c2ccc(-c3nn([C@H]4CC[C@H](NC(=O)/C=C/CN(C)C)CC4)c4ncnc(N)c34)cc2)c1` displayed an IC50 of 100 to 1000 nM. As for `CN(C/C=C/C(=O)N[C@H]1CC[C@H](n2nc(-c3ccc(C(=O)Nc4cc(C(F)(F)F)ccn4)cc3)c3c(N)ncnc32)CC1)C1CC1`, the figure is 100 to 1000 nM; as for `CN(C/C=C/C(=O)N1CC[C@@H](n2nc(-c3ccc(C(=O)Nc4ncc(C(F)(F)F)s4)cc3)c3c(N)ncnc32)C1)C1CC1`, 100 to 1000 nM; as for `Cc1ccnc(NC(=O)c2ccc(-c3nn([C@@H]4CCN(C(=O)/C=C/CNC5CC5)C4)c4ncnc(N)c34)cc2)c1`, 100 to 1000 nM. As for `CN(C/C=C/C(=O)N1CC[C@@H](n2nc(-c3ccc(C(=O)Nc4ncc(C5CC5)s4)cc3)c3c(N)ncnc32)C1)C1CC1`, the figure is less than 1 nM; as for `CCCc1cnc(NC(=O)c2ccc(-c3nn([C@@H]4CCN(C(=O)/C=C/CN(C)C5CC5)C4)c4ncnc(N)c34)cc2)s1`, 100 to 1000 nM.

Consider `CN(C/C=C/C(=O)N1CC[C@@H](n2nc(-c3ccc(C(=O)Nc4ncc(C#N)s4)cc3)c3c(N)ncnc32)C1)C1CC1`, for which the IC50 lay in the range of 1 to 100 nM.

(Values after the Kinase Knowledgebase extract (Sharma et al. 2016).)
